`COc1ccc(C(=O)c2c(N)sc3c2CCCN3C(=O)OCc2ccccc2)cc1OC` showed a melting point of 177 to 178 °C.
In turn, `CC(=O)NCC1CC1c1cccc2nnsc12` (configuration not stated) had a melting point of 81 to 82 °C.
Compound `CC(C)(C)CC(C)(C)c1cc(-n2nc3ccc(-c4ccc(-c5ccccc5)cc4)cc3n2)c(O)c(C(C)(C)c2ccccc2)c1` gave a melting point of 181 to 183 °C.
In the case of `COc1cnc2sc(S(=O)(=O)Cc3ccccc3)nn2c1=O`, the melting point was 204 to 206 °C.
`CC(=O)Nc1ccc(F)c(-c2ccccn2)c1F` had a melting point of 132 to 133 °C.
As to `Cc1c2c(nn1-c1ccccc1)c(=O)[nH]c1ccccc12`, the melting point is more than 250 °C.
With `O=C(c1cccs1)c1cnn2c(-c3cccc(-c4nnn(CCO)n4)c3)ccnc12` the figure was 134 °C.
`NC(=O)c1cccc(NC(=O)C(CS)Cc2ccccc2)c1` (configuration not stated) registered a melting point of 159 to 164 °C.
Take `Cc1cc(-c2nnc3c4ccccc4c(OCc4ccnn4C)nn23)no1`: the melting point stood at 270 °C.
Regarding `Cc1cccc(P(c2cccs2)c2cccs2)c1-c1c(C)cccc1P(c1cccs1)c1cccs1`, the melting point lay within 177 to 178 °C.
`OCC12CC(c3ccccc31)c1ccccc12` showed a melting point of 165 to 166 °C.
With `O=C(NCCSCc1ccccc1)c1cnccc1C(F)(F)F` the figure was 86 to 88 °C.
Compound `CCN1CCOc2cc(Nc3ncc(Cl)c(Nc4ccccc4C(=O)NC)n3)ccc2C1=O` showed a melting point of 215 to 220 °C.
As for `COc1ccc2c(ccn3c(=O)c(C(=O)O)cnc23)c1`, the melting point was 302 to 304 °C.
`ClCc1cnc(SCc2ccccc2)s1` returned a melting point of 57 to 61 °C.
For the compound `Cc1ccc(C)c(S(=O)(=O)Nc2onc(C)c2Cl)c1`, the melting point lay within 92 to 93 °C.
As for `O=C(CCc1ccc(O)c(Cl)c1)C1CCCC1`, the figure is 88 to 90 °C.
`CS(=O)(=O)Nc1cccc(S(=O)(=O)N2CCC(Nc3nc(Nc4cccc(C(F)(F)F)c4)nc(OCC(F)(F)F)n3)CC2)c1` gave a melting point of 249 to 251 °C.
For `O=C(O)c1ccc2c([N+](=O)[O-])cc3c(c2c1)C(CCl)CN3` (configuration not stated), the melting point lay within 205 to 208 °C.
As for `CC(C(=O)c1ccccn1)c1ccc(C2CCCCC2)cc1` (configuration not stated), the figure is 80 to 81 °C.
Regarding `CCC1(C)C(=O)c2c(cc(OCC(=O)O)c(Cl)c2Cl)C1c1ccccc1` (configuration not stated), the melting point worked out at 192 °C.
With `Cc1ccc(S(=O)(=O)Oc2ccc(S(=O)(=O)c3c(C)cn4ccccc34)cc2)cc1` the figure was 169 °C.
For the compound `COc1ccc(/C=C/C=C/C(=O)O)cc1`, the melting point lay within 134 to 135 °C.
In turn, `CCOC(=O)c1cccc(CSCCNC(=O)c2c(Cl)cccc2Cl)c1` registered a melting point of 43 to 45 °C.
With `COC(=O)c1sc2ccccc2c1N=CN(C)C` the figure was 73 to 74 °C; with `CN(C)CCNC(=O)c1cn(C)c(=O)c2cc3ccccc3nc12`, 192 to 194 °C; with `CC(C)(C)c1cc(CCC(N)=O)cc(-n2nc3ccc(S(=O)(=O)c4ccccc4)cc3n2)c1O`, 144 to 145 °C.
`CC(C)OC(=NC(=O)c1ccc(F)cc1)N1Cc2ccccc2-c2ccccc2C1` yielded a melting point of 90 to 93 °C.
In turn, `CCOc1cc(COc2nn(-c3ccccc3)cc2/C=C/P(=O)(OCC)OCC)ccc1OCc1nc(-c2ccco2)oc1C` yielded a melting point of 117 to 118 °C.
With `Cc1nc2cccc3n(CCCNS(=O)(=O)C(F)(F)F)c(=O)c1n23` the figure was 168 to 169 °C.
Regarding `C[C@]12CC[C@@H]3c4ccc(O)cc4CC[C@H]3[C@@H]1CCC2=C(F)F`, the melting point was in the range of 154 to 156 °C.
For the compound `O=c1ccn(-c2cc3[nH]c(=O)c(=O)[nH]c3cc2[N+](=O)[O-])cc1[N+](=O)[O-]`, the melting point is more than 300 °C.
`COc1cccc(C2CCCCN(Cc3ccccc3)C2=O)c1` (configuration not stated) had a melting point of 120 to 122 °C.
With `CCCOc1c(OC)cc(C=O)cc1SC` the figure was 64 to 66 °C; with `COC(=O)NCCCCC1CCSS1` (configuration not stated), 31 to 32 °C.
Consider `CCCSc1nc(NC2CC2c2ccccc2)c2nnn(C3CC(C(=O)NC)C(O)C3O)c2n1` (configuration not stated), for which the melting point is 165 to 166 °C.
In turn, `N#Cc1c(-c2sc(Cl)c(Cl)c2Cl)[nH]c(C(F)(F)F)c1Br` returned a melting point of 221 to 224 °C.
Take `O=c1cc(NCc2ccccc2)c(-c2nc[nH]n2)nn1-c1ccccc1`: the melting point was in the range of 192 to 193 °C.
With `COC(=O)c1ccccc1S(=O)(=O)NC(=O)Nc1nc(C)cc(COC(C)=O)n1` the figure was 145 to 150 °C; with `O=C(Cn1cc(Cc2ccccc2)cc(NC(=O)OCc2ccccc2)c1=O)NC(Cc1ccccc1)C(=O)C(F)(F)F` (configuration not stated), 127 to 130 °C.
With `CN(C)c1cc2c(cc1OCc1ccccc1)CCC1C2CCC2(C)C(=O)CCC12` (configuration not stated) the figure was 165 to 166 °C.
With `CC1(C)SC(c2ccco2)NC1C(=O)O` (configuration not stated) the figure was 141 to 143 °C; with `COc1ccc(S(=O)(=O)N(CCO)c2ccccc2/C=C/c2ccncc2)cc1`, 198 to 200 °C.
`FC(F)(F)c1cc(Nc2cc[nH]n2)nc(-c2cccnc2)n1` displayed a melting point of 230 °C.
The compound `CN1C(=O)CC[C@]2(C)c3ccc(-c4ccc(F)c(F)c4F)cc3CC[C@@H]12` returned a melting point of 100 to 102 °C.
`CO/C(=C\C=C\c1cc2ccccc2o1)C(=O)O` returned a melting point of 206 °C.
With `Oc1ccc(OCc2ccccc2)cc1OCc1ccccc1`, the melting point lay within 82 to 83 °C.
Turning to `CCOC(=O)CN1C(=O)N(c2ccc(C#N)c(C(F)(F)F)c2)C(=O)C1(C)C`, the melting point stood at 152 °C.
As for `COc1ccc2cc(C(N)=O)ccc2n1`, the figure is 212 to 214 °C; as for `CNC(=O)C1=CN=C(N2CCN(C)CC2)CC1c1ccccc1C` (racemic), 137 to 138 °C; as for `COc1cc(OC)nc(N(C(=S)Oc2ccccc2)C(=S)Oc2ccccc2)n1`, 127 to 128 °C.
As for `CC(C)(C)OP(=O)(CO)OC(C)(C)C`, the figure is 100 to 102 °C; as for `CCCCn1ccc(-c2ccc(Oc3ccnc(C)c3)cc2F)c(C#N)c1=O`, 127 °C.
As to `O=[N+]([O-])c1cccnc1Nc1ccncc1`, the melting point is 165 to 167 °C.
`CN(C)C=CC(=O)c1c(-c2ccc(C(C)(C)NC(=O)OC(C)(C)C)cc2)ccc2nn(C3CCCCO3)cc12` (configuration not stated) yielded a melting point of 191 to 194 °C.
Regarding `Cc1ccc(C(C)(C)C)c(O)c1-c1nc2cc(C#N)ccc2[nH]1`, the melting point was in the range of 212 to 215 °C.
With `CC(=O)Oc1coc(-c2cccc([N+](=O)[O-])c2)cc1=O`, the melting point was in the range of 170 to 171 °C.
Consider `COc1cc2c(cc1OC)-c1cc(=O)n(C)c(=O)n1CC2`, for which the melting point is 260 to 262 °C.
As for `Cn1nc(-c2ccc(Cl)cc2)c2c(=O)n3c(nc21)SCC3`, the figure is 256 to 257 °C; as for `CCCCc1nc(C(C)(C)O)c(C(=O)OCOC(=O)OC(C)C)n1Cc1ccc(-c2ccccc2C(=O)O)cc1`, 154 to 156 °C; as for `Cc1nc2c(O)c(CCC(=O)c3ccccc3)c(C(=O)N(C)C)cc2n1C`, 223 to 224 °C.
Take `Cc1cccc(C(=O)Nc2c[nH]nc2C(=O)NCCO)n1`: the melting point lay within 252 to 253 °C.
Regarding `O=C(O)c1cc2cc([N+](=O)[O-])cc(O)c2o1`, the melting point turned out to be 294 °C.
`CCc1cc2c(cc1C#Cc1ccc(C)cc1)C(C)(C)CCC2(C)C` returned a melting point of 72 to 73 °C.
`COc1ccc(C2(C#Cc3cccc(-c4nnc(C)s4)c3)CCCC(=O)C2)cc1OC1CCCC1` (configuration not stated) gave a melting point of 97 to 99 °C.
In the case of `COC(=O)C(Cc1ccc(OCCn2c(=O)sc3cc(Cc4ccc(-c5ccccc5)cc4)ccc32)cc1)C(=O)OC`, the melting point was found to be 122 °C.
The compound `O=[N+]([O-])c1cc2c(cc1[N+](=O)[O-])OC(CC(F)(F)F)(C(F)(F)F)O2` showed a melting point of 101 to 103 °C.
Turning to `O=C(O)CCCOc1ccc(C2=NNC(=O)CC2)cc1Cl`, the melting point lay in the range of 195 to 197 °C.
For `C=C1CC(c2cnc(-c3ccccc3Cl)s2)N(C)C1=O` (configuration not stated), the melting point fell in the range of 96 to 105 °C.
In the case of `COCCOc1ccc(/C=C/C(=O)O)c(Oc2ncc(Br)s2)c1`, the melting point is 144 to 145 °C.
With `Cc1ccc(CSc2nc3cc4c(cc3[nH]2)OC(C)O4)nc1`, the melting point fell in the range of 147 to 148 °C.
In turn, `CC(C)C[C@H](NC(=O)CCSC(=O)c1ccccc1)C(=O)O` gave a melting point of 99 to 101 °C.
As for `COc1ccccc1N1CCN(CCCOc2cc(C(=O)c3cc4ccccc4[nH]3)ccc2OCc2ccc(C)cc2)CC1`, the melting point is 126 to 128 °C.
For the compound `COc1cccc(Oc2c(NS(=O)(=O)c3ccc(C(C)(C)C)cc3)ncnc2OCc2ccccn2)c1`, the melting point lay within 206 to 208 °C.
With `N#Cc1c(N2CCc3ccccc3CC2)nc(CSc2ccccc2)[nH]c1=O` the figure was 189 to 194 °C.
The compound `CCN(CC)CCNC(=O)c1cc(Cl)c(N)cc1OC1OCCO1` showed a melting point of 93 to 95 °C.
`O=c1[nH]c2cc(Cl)ccc2c(O)c1-c1cccc(Oc2ccccc2)c1` yielded a melting point of 303 to 306 °C.
With `CC(C)Oc1ccc(CO)c(Oc2ncc(C(F)(F)F)cc2Cl)c1` the figure was 63 to 64 °C; with `COc1cc(OC)c(-c2cccn2C(=O)OC(C)(C)C)cc1/C=C/C(=O)c1ccc(C(=O)O)cc1`, 205 to 207 °C; with `CCOC(=O)c1cn(NCCC=O)c2nc(C)ccc2c1=O`, 175 to 178 °C.
For `Oc1ccc(Oc2ccc(Cl)cc2Cl)cc1`, the melting point came to 82 °C.
`CSc1nsc(N)c1C#N` came in with a melting point of 188 to 189 °C.
The compound `NC(=O)N(O)CC#Cc1cccc(C2=N[C@H](c3ccc(F)cc3)CO2)c1` yielded a melting point of 181 °C.
With `O=C1C(Br)=C(c2cn(S(=O)(=O)c3ccccc3)c3ccccc23)C(=O)N1COCc1ccccc1` the figure was 49 to 51 °C; with `O=C1NC(=O)C(Cc2ccc(OCc3coc(-c4ccccc4)n3)cc2)S1` (configuration not stated), 188 to 189 °C.
Regarding `O=C(c1ccc2ccccc2c1)P1(=O)Oc2ccccc2-c2ccccc21` (configuration not stated), the melting point was 151 to 153 °C.
In turn, `CCCCOC(=O)NC(=O)C1c2ccccc2Sc2ccccc21` yielded a melting point of 151 to 154 °C.

The term melting point denotes the temperature, or range, at which the solid turns liquid.

(Values after a melting point compilation (Tetko et al.; mined from patent text by program, amines drawn as free bases though some values may be those of a salt).)
